Experimental data taken from patent publication US20250161403A1, “PEPTIDES AND METHODS OF USE THEREOF IN TREATING OCULAR DISORDERS” (Biomarck Pharmaceuticals, Ltd., priority 2022, published 2025).

How the values were obtained:
Assay type in all cases: in vivo, Sprague-Dawley rats
[1] = tested on: dry eye in the Alacrimal Rat Model; assay: Alacrimal rat dry eye model: clinical examination by biomicroscopy, corneal opacity score; conditions: for Corneal scores compared to sham: 100 μM topical 4 times a day, days 3 and 7
Protocol: (§1) Dry eye was induced in the left eye of Sprague-Dawley rats by removal of the extraorbital lacrimal gland. […] Topical administration of test compounds was initiated 2 weeks after surgery, given 4 times a day and continued for 24 days. Sham rats (n=6) were untreated. Alacrimal rats (n=6 each) were dosed bilaterally with 10 μL of phosphate buffered saline (PBS), or 100 μM of either of two MARCKS inhibitors: BIO-11006 [high molecular weight] or BIO-91201 [lower molecular weight]. The efficacy of these MARCKS inhibitor peptides was assessed via clinical examination using biomicroscopy and phenol red test (PRT) tear volume with the observers masked to the treatments. Examinations were at baseline, 2 weeks after surgery, and on days 1, 3, 7, 14, 21, and 24 after initiating dosing. Clinical scores for corneal opacity, vascularization, and corneal fluorescein (FL) retention were recorded at each examination.
Corneal scores were assessed as in the table below.

[2] = tested on: dry eye in the Alacrimal Rat Model; assay: Alacrimal rat dry eye model: phenol red test (PRT) tear volume; conditions: overall conclusion of the study; 100 μM topical
Protocol: as §1
FIG. 3 provides the results of the phenol red test (PRT), showing tear measurement in mm/20 s averaged for each group.

[3] = tested on: dry eye in the Alacrimal Rat Model; assay: Alacrimal rat dry eye model: corneal fluorescein (FL) retention score; conditions: 100 μM topical 4 times a day
Protocol: as §1
PRT was higher in MARCKs inhibitor-dosed groups compared to PBS groups on days 14, 21, and 24 after surgery (p<0.02; t test). Fluorescein retention score was measured as shown in the table below, and the scores and statistical analyses are provided in FIG. 2.
Fluorescein retention scores.

| Substance | Corneal scores compared to sham [1] | corneal opacity scores ([1]; 100 μM, 10 μL topical 4 times a day for 24 days, relative to PBS and BIO-11006 dosed groups) | effect on indicators of dry eye disease including corneal scores and corneal fluorescein retention ([1]; overall conclusion of the study, 100 μM topical) | tear production [2] | FL retention scores versus sham eyes ([3]; through day 14) | corneal fluorescein (FL) retention ([3]; versus PBS or BIO-11006 dosed eyes, p<0.02) |
| --- | --- | --- | --- | --- | --- | --- |
| Ac-AKGE-OH [BIO-91201] | no difference between sham and BIO-91201 | reduced corneal opacity scores relative to the PBS and BIO-11006 dosed groups | significant positive effect | improvement in tear production | not significantly different than sham eyes | significantly lower FL retention than PBS or BIO-11006 dosed eyes |
| BIO-11006: N-terminal acetylated peptide of SEQ ID NO 106 (GAQFSKTAAK), free C-terminus; MARCKS inhibitor, high molecular weight (Ac-GAQFSKTAAK-OH) | significantly elevated |  |  |  |  |  |
